# Measured values from article PMC8163506, “A novel ATP dependent dimethylsulfoniopropionate lyase in bacteria that releases dimethyl sulfide and acryloyl-CoA” (eLife, 2021).
# Molecular target: T1, DddX (Psychrobacter sp., UniProt Z9QGV9JXN0)
# T1 construct: full length (2247 bp gene), pET-22b, C-terminal His tag, E. coli BL21(DE3); dimer in solution
# T1 sequence (Z9QGV9JXN0 1-748): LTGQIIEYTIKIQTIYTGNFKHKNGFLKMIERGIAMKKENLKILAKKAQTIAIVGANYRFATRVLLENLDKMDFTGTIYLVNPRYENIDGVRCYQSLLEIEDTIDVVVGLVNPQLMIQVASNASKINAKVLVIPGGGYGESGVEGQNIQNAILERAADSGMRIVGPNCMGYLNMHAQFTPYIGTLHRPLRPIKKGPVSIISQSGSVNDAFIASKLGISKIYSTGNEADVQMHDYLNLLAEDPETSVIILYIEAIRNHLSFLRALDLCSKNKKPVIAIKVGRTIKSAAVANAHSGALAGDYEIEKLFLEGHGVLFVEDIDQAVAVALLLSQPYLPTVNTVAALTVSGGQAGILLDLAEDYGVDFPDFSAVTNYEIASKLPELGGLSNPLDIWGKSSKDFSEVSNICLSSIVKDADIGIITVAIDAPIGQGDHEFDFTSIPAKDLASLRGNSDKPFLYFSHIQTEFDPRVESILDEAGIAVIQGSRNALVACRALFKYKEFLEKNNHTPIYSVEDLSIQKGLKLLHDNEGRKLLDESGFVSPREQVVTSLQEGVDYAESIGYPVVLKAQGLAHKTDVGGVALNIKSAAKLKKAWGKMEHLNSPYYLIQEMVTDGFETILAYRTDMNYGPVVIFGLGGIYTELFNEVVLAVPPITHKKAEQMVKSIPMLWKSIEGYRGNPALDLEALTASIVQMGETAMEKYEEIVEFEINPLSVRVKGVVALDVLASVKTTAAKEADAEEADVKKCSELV
# Experiment: X-ray crystal structure of complex
# Format: binding
# Settings: 1 mM ATP incubated with protein; ATP-grasp domain; crystals at pH 5.5, 18 °C
smiles,measurement,value
Nc1ncnc2c1ncn2[C@@H]1O[C@H](COP(=O)(O)OP(=O)(O)OP(=O)(O)O)[C@@H](O)[C@H]1O [ATP],X-ray crystal structure of complex,we solved the crystal structure of DddX in complex with ATP
